Experimental data published in PubChem BioAssay AID2060910 (Molecular Pharmacology Branch, DTP, NCI, 2025).
pIC50: −log10 of the molar value.

Test system: 242566-281-R-J2-PDC complex spheroid viability
Experiment: Anticancer human tumor 242566-281-R-J2-PDC patient-derived pancreatic carcinoma cell line growth inhibition [RAS]
Conditions: for viability, T/C: stronger effect = lower value
Procedure, shortened: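 Agents were tested in combination matrices in half-log decrements from a top concentration at or near clinical Cmax (10 microM if undetermined). Targets were multi-cell spheroids of tumour lines plus HUVEC and MSC stromal cells.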
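Further: spheroids exposed to compound for 7 days before readout.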
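Wherever viability, T/C is given: 100% = DMSO vehicle control wells.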

**Q.** How did the pIC50 (curve of first compound, second compound 0.000949 µM) turn out when C=CC(=O)N1CCN(c2nc(OCC3CCCN3C)nc3c(F)c(-c4nc(N)cc(C)c4C(F)(F)F)c(Cl)cc23)C(C)C1 (configuration not stated) + CCn1c(-c2cc(N3CCN(C)CC3)cnc2C(C)OC)c2c3cc(ccc31)-c1csc(n1)CC(NC(=O)C1CC1C)C(=O)N1CCCC(N1)C(=O)OCC(C)(C)C2 was run?
**A.** Its pIC50 is < 6.00.

**Q.** What about the pIC50 (curve of first compound, second compound 0.003 µM) of the same compound?
**A.** Its pIC50 is < 6.00.

**Q.** What about the pIC50 (curve of first compound, second compound 0.00949 µM) of the same compound?
**A.** The pIC50 was > 8.50.

**Q.** And the pIC50 (curve of first compound, second compound 0.03 µM)?
**A.** The pIC50 was > 8.50.

**Q.** And the pIC50 (curve of first compound, second compound 0.0949 µM)?
**A.** Its pIC50 is > 8.50.

**Q.** What about the pIC50 (curve of first compound, second compound 0.3 µM) of the same compound?
**A.** The pIC50 was > 8.50.

**Q.** And the viability, T/C (second compound 0.000949 µM, first compound 0.00316 µM)?
**A.** The viability, T/C was 91.5%.

**Q.** And the viability, T/C (second compound 0.000949 µM, first compound 0.01 µM)?
**A.** Its viability, T/C is 90.3%.

**Q.** What about the viability, T/C (second compound 0.000949 µM, first compound 0.0316 µM) of the same compound?
**A.** The viability, T/C was 69.8%.

**Q.** What about the viability, T/C (second compound 0.000949 µM, first compound 0.1 µM) of the same compound?
**A.** The viability, T/C was 96.7%.

**Q.** What about the viability, T/C (second compound 0.000949 µM, first compound 0.316 µM) of the same compound?
**A.** The viability, T/C was 86.9%.

**Q.** What about the viability, T/C (second compound 0.000949 µM, first compound 1 µM) of the same compound?
**A.** Its viability, T/C is 59.6%.

**Q.** And the viability, T/C (second compound 0.003 µM, first compound 0.00316 µM)?
**A.** Its viability, T/C is 80.6%.

**Q.** What about the viability, T/C (second compound 0.003 µM, first compound 0.01 µM) of the same compound?
**A.** Its viability, T/C is 62.2%.

**Q.** What about the viability, T/C (second compound 0.003 µM, first compound 0.0316 µM) of the same compound?
**A.** Its viability, T/C is 67.8%.

**Q.** What about the viability, T/C (second compound 0.003 µM, first compound 0.1 µM) of the same compound?
**A.** The viability, T/C was 70.5%.

**Q.** And the viability, T/C (second compound 0.003 µM, first compound 0.316 µM)?
**A.** Its viability, T/C is 76.5%.

**Q.** And the viability, T/C (second compound 0.003 µM, first compound 1 µM)?
**A.** The viability, T/C was 51.7%.

**Q.** And the viability, T/C (second compound 0.00949 µM, first compound 0.00316 µM)?
**A.** The viability, T/C was 46.6%.

**Q.** And the viability, T/C (second compound 0.00949 µM, first compound 0.01 µM)?
**A.** The viability, T/C was 39.8%.

**Q.** What about the viability, T/C (second compound 0.00949 µM, first compound 0.0316 µM) of the same compound?
**A.** Its viability, T/C is 44.3%.

**Q.** And the viability, T/C (second compound 0.00949 µM, first compound 0.1 µM)?
**A.** The viability, T/C was 47.3%.

**Q.** And the viability, T/C (second compound 0.00949 µM, first compound 0.316 µM)?
**A.** The viability, T/C was 43.1%.

**Q.** And the viability, T/C (second compound 0.00949 µM, first compound 1 µM)?
**A.** Its viability, T/C is 41.3%.

**Q.** What about the viability, T/C (second compound 0.03 µM, first compound 0.00316 µM) of the same compound?
**A.** The viability, T/C was 33.7%.

**Q.** What about the viability, T/C (second compound 0.03 µM, first compound 0.01 µM) of the same compound?
**A.** Its viability, T/C is 32.1%.

**Q.** And the viability, T/C (second compound 0.03 µM, first compound 0.0316 µM)?
**A.** The viability, T/C was 30.3%.

**Q.** And the viability, T/C (second compound 0.03 µM, first compound 0.1 µM)?
**A.** The viability, T/C was 30.5%.

**Q.** And the viability, T/C (second compound 0.03 µM, first compound 0.316 µM)?
**A.** The viability, T/C was 23.8%.

**Q.** And the viability, T/C (second compound 0.03 µM, first compound 1 µM)?
**A.** Its viability, T/C is 26.9%.

**Q.** And the viability, T/C (second compound 0.0949 µM, first compound 0.00316 µM)?
**A.** The viability, T/C was 25.1%.

**Q.** And the viability, T/C (second compound 0.0949 µM, first compound 0.01 µM)?
**A.** Its viability, T/C is 22.6%.

**Q.** And the viability, T/C (second compound 0.0949 µM, first compound 0.0316 µM)?
**A.** Its viability, T/C is 23.1%.

**Q.** What about the viability, T/C (second compound 0.0949 µM, first compound 0.1 µM) of the same compound?
**A.** Its viability, T/C is 24.5%.

**Q.** And the viability, T/C (second compound 0.0949 µM, first compound 0.316 µM)?
**A.** The viability, T/C was 20.1%.

**Q.** And the viability, T/C (second compound 0.0949 µM, first compound 1 µM)?
**A.** Its viability, T/C is 26%.

**Q.** And the viability, T/C (second compound 0.3 µM, first compound 0.00316 µM)?
**A.** The viability, T/C was 21.6%.

**Q.** And the viability, T/C (second compound 0.3 µM, first compound 0.01 µM)?
**A.** The viability, T/C was 20.6%.

**Q.** And the viability, T/C (second compound 0.3 µM, first compound 0.0316 µM)?
**A.** Its viability, T/C is 21.7%.

**Q.** What about the viability, T/C (second compound 0.3 µM, first compound 0.1 µM) of the same compound?
**A.** Its viability, T/C is 20.6%.

**Q.** And the viability, T/C (second compound 0.3 µM, first compound 0.316 µM)?
**A.** The viability, T/C was 19.8%.

**Q.** And the viability, T/C (second compound 0.3 µM, first compound 1 µM)?
**A.** Its viability, T/C is 20.2%.

**Q.** CC(C)NCC(C(=O)N1CCN(c2ncnc3c2C(C)CC3O)CC1)c1ccc(Cl)cc1 (configuration not stated) was tested. Which viability, T/C (compound 0.0316 µM) did it give?
**A.** Its viability, T/C is 104% [middle of 4 runs].

**Q.** And the viability, T/C (compound 0.1 µM)?
**A.** Its viability, T/C is 106% [middle of 4 runs].

**Q.** What about the viability, T/C (compound 0.316 µM) of the same compound?
**A.** Its viability, T/C is 103% [middle of 4 runs].

**Q.** And the viability, T/C (compound 1 µM)?
**A.** The viability, T/C was 101% [middle of 4 runs].

**Q.** What about the pIC50 (curve of compound) of the same compound?
**A.** The pIC50 was < 5.00.
